This note sets out measurements from US9695178B2, “6-(2-pyridyl)-7,8-dihydro-5H-pyrido[4,3-D]pyrimidine analogs as hedgehog pathway signaling inhibitors and therapeutic applications thereof” (Suzhou Yunxuan Yiyao Keji Youxian Gongsi, priority 2013, dated 2017).

Structures are written as SMILES. Bounds are passed on as bounds.

The target of the first assay is Smo (Homo sapiens, UniProt Q99835). The assay is described as follows: Bodipy-Cyclopamine Binding Assay (confirmation assay), Hek293-SMO cells.
Sequence of Smo (Q99835 28-787): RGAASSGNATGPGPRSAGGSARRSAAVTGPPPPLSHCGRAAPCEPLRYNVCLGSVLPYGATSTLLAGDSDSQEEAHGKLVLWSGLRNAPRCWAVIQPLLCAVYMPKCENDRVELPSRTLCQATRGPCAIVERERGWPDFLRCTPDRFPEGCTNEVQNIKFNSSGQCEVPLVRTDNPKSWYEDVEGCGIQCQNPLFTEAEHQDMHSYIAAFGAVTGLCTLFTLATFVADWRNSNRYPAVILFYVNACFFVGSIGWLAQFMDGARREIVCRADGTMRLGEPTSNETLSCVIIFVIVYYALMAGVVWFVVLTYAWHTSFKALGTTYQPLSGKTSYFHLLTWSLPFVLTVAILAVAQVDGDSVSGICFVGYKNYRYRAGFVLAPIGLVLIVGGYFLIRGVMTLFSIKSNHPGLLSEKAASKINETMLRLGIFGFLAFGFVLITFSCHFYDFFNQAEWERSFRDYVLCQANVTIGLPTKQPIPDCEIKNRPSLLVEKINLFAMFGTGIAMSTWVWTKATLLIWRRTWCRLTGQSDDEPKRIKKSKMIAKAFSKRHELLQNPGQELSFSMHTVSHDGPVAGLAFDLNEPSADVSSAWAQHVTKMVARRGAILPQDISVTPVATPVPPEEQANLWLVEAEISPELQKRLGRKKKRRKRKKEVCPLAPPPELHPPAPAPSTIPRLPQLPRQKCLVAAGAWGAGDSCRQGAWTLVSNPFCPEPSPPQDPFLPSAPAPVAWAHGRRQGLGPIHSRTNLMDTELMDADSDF
Settings: not given
`CCOc1nc2c(s1)CN(c1cc(-c3ncc(C)cc3C)c(Cl)cn1)CC2` [Compound A46, 5-(5′-chloro-3,5-dimethyl-2,4′-bipyridin-2′-yl)-2-ethoxy-4,5,6,7-tetrahydro-thiazolo-[5,4-c]pyridine] displayed an IC50 of 158 nM.

In turn, `Cc1cnc(-c2cc(N3CCc4nc(NC5CC5)ncc4C3=O)ncc2Cl)c(C)c1` [Compound A99, 6-(5′-chloro-3,5-dimethyl-2,4′-bipyridin-2′-yl)-2-(cyclopropyl-amino)-7,8-dihydro-pyrido[4,3-d]pyrimidin-5(6H)-one] showed an IC50 of 24.8 nM.

`CCOC(=O)c1cn2c(n1)CN(c1cc(-c3ncc(C)cc3C)c(Cl)cn1)CC2` [Compound A-1, ethyl 7-(5′-chloro-3,5-dimethyl-2,4′-bipyridin-2′-yl)-5,6,7,8-tetrahydro-imidazo-[1,2-a]pyrazine-2-carboxylate] returned an IC50 of 321 nM.

In turn, `Cc1cnc(-c2cc(N3CCn4cc(C(=O)O)nc4C3)ncc2Cl)c(C)c1` [Compound A-2, 7-(5′-chloro-3,5-dimethyl-2,4′-bipyridin-2′-yl)-5,6,7,8-tetrahydro-imidazo-[1,2-a]pyrazine-2-carboxylic acid] yielded an IC50 of more than 10000 nM.

The compound `Cc1cnc(-c2cc(N3CCn4cc(C(=O)N5CCCC5)nc4C3)ncc2Cl)c(C)c1` [Compound A-3, (7-(5′-chloro-3,5-dimethyl-2,4′-bipyridin-2′-yl)-5,6,7,8-tetrahydroimidazo[1,2-a]pyrazin-2-yl)(pyrrolidin-1-yl)methanone] returned an IC50 of 244 nM.

The compound `Cc1cnc(-c2cc(N3CCn4cc(C(=O)N5CCC(O)CC5)nc4C3)ncc2Cl)c(C)c1` [Compound A-4, (7-(5′-chloro-3,5-dimethyl-2,4′-bipyridin-2′-yl)-5,6,7,8-tetrahydro-imidazo-[1,2-a]pyrazin-2-yl)(4-hydroxy-piperidin-1-yl)methanone] gave an IC50 of 639 nM.

In turn, `Cc1cnc(-c2cc(N3CCn4cc(C(=O)N5CCOCC5)nc4C3)ncc2Cl)c(C)c1` [Compound A-5, (7-(5′-chloro-3,5-dimethyl-2,4′-bipyridin-2′-yl)-5,6,7,8-tetrahydro-imidazo-[1,2-a]pyrazin-2-yl)(morpholino) methanone] gave an IC50 of 1150 nM.

The compound `CNC(=O)c1cn2c(n1)CN(c1cc(-c3ncc(C)cc3C)c(Cl)cn1)CC2` [Compound A-6, 7-(5′-chloro-3,5-dimethyl-2,4′-bipyridin-2′-yl)-N-methyl-5,6,7,8-tetrahydro-imidazo-[1,2-a]pyrazine-2-carboxamide] gave an IC50 of 1260 nM.

Take `Cc1cnc(-c2cc(N3CCn4cc(C(=O)N5CC(C)NC(C)C5)nc4C3)ncc2Cl)c(C)c1` (centres unmarked) [Compound A-7, (7-(5′-chloro-3,5-dimethyl-2,4′-bipyridin-2′-yl)-5,6,7,8-tetrahydro-imidazo-[1,2-a]pyrazin-2-yl)(3,5-dimethyl-piperazin-1-yl)methanone]: the 50% inhibitory concentration (IC50) was 656 nM.

Compound `Cc1cnc(-c2cc(N3CCn4cc(C(=O)N(C)CCO)nc4C3)ncc2Cl)c(C)c1` [Compound A-8, 7-(5′-chloro-3,5-dimethyl-2,4′-bipyridin-2′-yl)-N-(2-hydroxyethyl)-N-methyl-5,6,7,8-tetrahydro-imidazo-[1,2-a]pyrazine-2-carboxamide] had an IC50 of 2010 nM.

Consider `Cc1cnc(-c2cc(N3CCn4cc(CN5CCOCC5)nc4C3)ncc2Cl)c(C)c1` [Compound A-11, 4-((7-(5′-chloro-3,5-dimethyl-2,4′-bipyridin-2′-yl)-5,6,7,8-tetrahydroimidazo[1,2-a]pyrazin-2-yl)methyl)morpholine], for which the IC50 came to 676 nM.

For the compound `Cc1cnc(-c2cc(N3CCn4cc(NC(=O)C(F)(F)F)nc4C3)ncc2Cl)c(C)c1` [Compound A-12, N-(7-(5′-chloro-3,5-dimethyl-2,4′-bipyridin-2′-yl)-5,6,7,8-tetrahydro-imidazo-[1,2-a]pyrazin-2-yl)-2,2,2-trifluoro-acetamide], the IC50 was more than 1000 nM.

Compound `CCC(=O)Nc1cn2c(n1)CN(c1cc(-c3ncc(C)cc3C)c(Cl)cn1)CC2` [Compound A-13, N-(7-(5′-chloro-3,5-dimethyl-2,4′-bipyridin-2′-yl)-5,6,7,8-tetrahydroimidazo[1,2-a]pyrazin-2-yl)propionamide] showed an IC50 of more than 1000 nM.

In the case of `COCC(=O)Nc1cn2c(n1)CN(c1cc(-c3ncc(C)cc3C)c(Cl)cn1)CC2` [Compound A-14, N-(7-(5′-chloro-3,5-dimethyl-2,4′-bipyridin-2′-yl)-5,6,7,8-tetrahydro-imidazo-[1,2-a]pyrazin-2-yl)-2-methoxy-acetamide], the IC50 was more than 1000 nM.

Take `Cc1cnc(-c2cc(N3CCn4cc(C(=O)OC(C)C)nc4C3)ncc2Cl)c(C)c1` [Compound A-15, isopropyl 7-(5′-chloro-3,5-dimethyl-2,4′-bipyridin-2′-yl)-5,6,7,8-tetrahydro-imidazo-[1,2-a]pyrazine-2-carboxylate]: the IC50 came to 589 nM.

`Cc1cnc(-c2cc(N3CCn4cc(C(=O)OC5CCCC5)nc4C3)ncc2Cl)c(C)c1` [Compound A-17, cyclopentyl 7-(5′-chloro-3,5-dimethyl-2,4′-bipyridin-2′-yl)-5,6,7,8-tetrahydro-imidazo-[1,2-a]pyrazine-2-carboxylate]: the IC50 is more than 1000 nM.

Consider `Cc1cnc(-c2cc(N3CCn4cc(C(=O)Oc5ccccc5)nc4C3)ncc2Cl)c(C)c1` [Compound A-18, phenyl 7-(5′-chloro-3,5-dimethyl-2,4′-bipyridin-2′-yl)-5,6,7,8-tetrahydro-imidazo-[1,2-a]pyrazine-2-carboxylate], for which the IC50 was more than 1000 nM.

Compound `Cc1cnc(-c2cc(N3CCn4cc(C(=O)Nc5ccccc5F)nc4C3)ncc2Cl)c(C)c1` [Compound A-20, 7-(5′-chloro-3,5-dimethyl-2,4′-bipyridin-2′-yl)-N-(2-fluorophenyl)-5,6,7,8-tetrahydro-imidazo-[1,2-a]pyrazine-2-carboxamide] yielded an IC50 of 507 nM.

`Cc1cnc(-c2cc(N3CCn4cc(C(=O)Nc5ccc(F)cc5)nc4C3)ncc2Cl)c(C)c1` [Compound A-21, 7-(5′-chloro-3,5-dimethyl-2,4′-bipyridin-2′-yl)-N-(4-fluorophenyl)-5,6,7,8-tetrahydro-imidazo-[1,2-a]pyrazine-2-carboxamide] yielded a concentration for half-maximal inhibition (IC50) of more than 1000 nM.

The compound `Cc1cnc(-c2cc(N3CCc4nc(N)sc4C3)ncc2Cl)c(C)c1` [Compound A-22, 5-(5′-chloro-3,5-dimethyl-2,4′-bipyridin-2′-yl)-4,5,6,7-tetrahydro-thiazolo-[5,4-c]pyridin-2-amine] yielded an IC50 of 768 nM.

Consider `CC(=O)Nc1nc2c(s1)CN(c1cc(-c3ncc(C)cc3C)c(Cl)cn1)CC2` [Compound A-23, N-(5-(5′-chloro-3,5-dimethyl-[2,4′-bipyridin]-2′-yl)-4,5,6,7-tetrahydrothiazolo[5,4-c]pyridin-2-yl)acetamide], for which the IC50 was 363 nM.

For the compound `Cc1cnc(-c2cc(N3CCc4nc(NC(=O)C(C)C)sc4C3)ncc2Cl)c(C)c1` [Compound A-24, N-(5-(5′-chloro-3,5-dimethyl-2,4′-bipyridin-2′-yl)-4,5,6,7-tetrahydro-thiazolo-[5,4-c]pyridin-2-yl)isobutyr-amide], the IC50 came out at 58.3 nM.

On to `CCC(=O)Nc1nc2c(s1)CN(c1cc(-c3ncc(C)cc3C)c(Cl)cn1)CC2` [Compound A-25, N-(5-(5′-chloro-3,5-dimethyl-2,4′-bipyridin-2′-yl)-4,5,6,7-tetrahydro-thiazolo-[5,4-c]pyridin-2-yl)propion-amide], for which the IC50 is 101 nM.

The compound `Cc1cnc(-c2cc(N3CCc4nc(NC(=O)C5CC5)sc4C3)ncc2Cl)c(C)c1` [Compound A-26, N-(5-(5′-chloro-3,5-dimethyl-2,4′-bipyridin-2′-yl)-4,5,6,7-tetrahydro-thiazolo-[5,4-c]pyridin-2-yl)cyclo-propane carboxamide] displayed a half-inhibitory concentration (IC50) of 71 nM.

As for `COCC(=O)Nc1nc2c(s1)CN(c1cc(-c3ncc(C)cc3C)c(Cl)cn1)CC2` [Compound A-27, N-(5-(5′-chloro-3,5-dimethyl-2,4′-bipyridin-2′-yl)-4,5,6,7-tetrahydro-thiazolo-[5,4-c]pyridin-2-yl)-2-methoxy-acetamide], the IC50 was 423 nM.

In the case of `Cc1cnc(-c2cc(N3CCc4nc(NC(=O)C(C)(C)C)sc4C3)ncc2Cl)c(C)c1` [Compound A-28, N-(5-(5′-chloro-3,5-dimethyl-2,4′-bipyridin-2′-yl)-4,5,6,7-tetrahydro-thiazolo-[5,4-c]pyridin-2-yl)pivalamide], the IC50 came out at 127 nM.

Turning to `Cc1cnc(-c2cc(N3CCc4nc(N5CCOCC5)sc4C3)ncc2Cl)c(C)c1` [Compound A-29, 4-(5-(5′-chloro-3,5-dimethyl-[2,4′-bipyridin]-2′-yl)-4,5,6,7-tetrahydrothiazolo[5,4-c]pyridin-2-yl)morpholine], the IC50 was found to be 169 nM.

In the case of `Cc1cnc(-c2cc(N3CCc4nc(N5CC(C)NC(C)C5)sc4C3)ncc2Cl)c(C)c1` (centres unmarked) [Compound A-30, 5-(5′-chloro-3,5-dimethyl-2,4′-bipyridin-2′-yl)-2-(3,5-dimethyl-piperazin-1-yl)-4,5,6,7-tetrahydro-thiazolo-[5,4-c]pyridine], the IC50 was determined as 69.7 nM.

Still in this assay, the particulars now being: Smo IC50 (nM), confirmation assay; competition with 100 nM bodipy-cyclopamine, Hek293-SMO cells.
In turn, `Cc1cnc(-c2cc(N3CCn4cc(C(=O)OCC5CC5)nc4C3)ncc2Cl)c(C)c1` [Compound A16, cyclopro-pylmeth-yl 7-(5′-chloro-3,5-dimethyl-2,4′-bipyridin-2′-yl)-5,6,7,8-tetrahydro-imidazo-[1,2-a]pyrazine-2-carboxylate] registered an IC50 of 442 nM.

In turn, `CCNC(=O)c1cn2c(n1)CN(c1cc(-c3ncc(C)cc3C)c(Cl)cn1)CC2` [Compound A-9, 7-(5′-chloro-3,5-dimethyl-2,4′-bipyridin-2′-yl)-N-ethyl-5,6,7,8-tetrahydro-imidazo-[1,2-a]pyrazine-2-carboxamide] gave an IC50 of more than 1000 nM.

Compound `Cc1cnc(-c2cc(N3CCn4cc(CO)nc4C3)ncc2Cl)c(C)c1` [Compound A-10, (7-(5′-chloro-3,5-dimethyl-2,4′-bipyridin-2′-yl)-5,6,7,8-tetrahydro-imidazo-[1,2-a]pyrazin-2-yl)methanol] showed an IC50 of more than 1000 nM.

Consider `Cc1cnc(-c2cc(N3CCn4cc(C(=O)Nc5ccccc5)nc4C3)ncc2Cl)c(C)c1` [Compound A-19, 7-(5′-chloro-3,5-dimethyl-2,4′-bipyridin-2′-yl)-N-phenyl-5,6,7,8-tetrahydro-imidazo-[1,2-a]pyrazine-2-carboxamide], for which the IC50 stood at 311 nM.
